Data on two molecules can be found in US4230845A, “Polyhydroxy-alkyl-3,5-disubstituted-2,4,6-triiodocarbanilates” (Mallinckrodt, Inc., priority 1978, dated 1980).

As usually defined, the solubility is the dissolved amount per volume that the medium holds.

Converted amounts (≈) assume the structure as drawn. Read-outs that look alike come from different tables or passages of the source.

A short description of data set [1]: Intracisternal toxicity in rats. It is filed as in vivo, Sprangue-Dawley (Carworth) rats. The following applies: aqueous solution, two day observation, Litchfield and Wilcoxon. How it is done:
(§1) Toxicity evaluations in accordance with three different techniques were carried out on aqueous solutions of the compounds of Examples I and II. The techniques utilized are described below.
Sprangue-Dawley (Carworth) rats were used. The method used was a variation of the procedure outlined by Melartin et al. (Invest. Rad. 5: 13-21, 1970). After dosing, the animals were housed individually and observed for immediate reactions and periodically for a two day observation period. The LD50 values were calculated according to the method of Litchfield and Wilcoxon (J. of Pharmac. and Exptl. Therap. 96:99-115, 1949).

A short description of data set [2]: Intravenous pyelographic studies in dogs. It is filed as in vivo. The following applies: dog. On the procedure:
The compounds of Examples I and II were employed in intravenous pyelographic studies carried out in dogs. At a dosage of 1000 mg.

A short description of data set [3]: Acute intravenous toxicity studies in mice. As to conditions: intravenous (lateral tail vein), iodine concentration 28.2%, pH 7.0-7.2, approx. 1 ml./min, seven day observation, Litchfield and Wilcoxon. It is filed as in vivo, Swiss Albino mice (Charles River). On the procedure: as §1
Swiss Albino mice (Charles River) were dosed in the lateral tail vein with aqueous solutions of the above-noted iodinated compounds having an iodine concentration of 28.2% with a pH of 7.0-7.2. The solutions were injected at the rate of approximately 1 ml./min. […] The LD50 values were calculated by the method of Litchfield and Wilcoxon (J. of Pharmac. and Exptl. Therap. 96: 99-113, 1949).

Another data set in a line: Water solubility. It is filed as physicochemical.
Data set [4] in a line: Intracerebral toxicity in mice. It is filed as in vivo, Swiss Albino mice (Charles River). As to conditions: aqueous solution, seven day observation, Litchfield and Wilcoxon. How it is done: as §1
Swiss Albino mice (Charles River) were used. Fixed volumes of aqueous solutions of the iodinated compounds were injected intracerebrally via a 27 gauge needle (1/4 inch in length) according to the method of Haley et al. (Br. J. of Pharmac. 12:12-15, 1957). The animals were observed immediately following injections and daily throughout a seven day observation period. The LD50 values were calculated by the method of Litchfield and Wilcoxon (J. of Pharmac. and Exptl. Therap. 96:99-113, 1949).

With `CNC(=O)c1c(I)c(NC(=O)OCC(=O)[C@@H](O)[C@H](O)[C@@H](O)CO)c(I)c(C(=O)N(C)C)c1I` [Example I, 1-[N-(2,4,6-triiodo-3-N,N-dimethylcarbamyl-5-N-methylcarbamyl)carbanilyl]-L-sorbose], in data set [1], the “LD50 Value, Intracisternal (Rats)” value came to 13 mg. I/kg. body wt. In addition, the Pyelographic visualization result in data set [2] (1000 mg. I/kg., five minutes after injection) was “very good contrast of the kidneys, collecting pelvises and urinary bladder”. Moreover, in data set [3], the “LD50 Value, I.V. (Mice)” value is listed as 3,027 mg. I/kg. body wt. This molecule also came in with a solubility at 730 h in “Water solubility” (after standing for one month) of 200 mg/mL (≈ 248 mM). In the data set “Water solubility” (initial determination, read-out: Water solubility (initially)), the solubility was 1000 mg/mL (≈ 1240 mM). For the same molecule, the “LD50 Value, Intracerebral (Mice)” value in data set [4] is recorded as 1,450 mg. I/kg. body wt.
Regarding `CNC(=O)c1c(I)c(NC(=O)OC[C@@H](O)[C@H](O)[C@H](O)[C@@H](O)C=O)c(I)c(N(C)C(C)=O)c1I` [Example II, 6-[2,4,6-Triiodo-3-(N-methylacetamido)-5-(N-methylcarbamyl)carbanilyl]-D-galactose], in data set [1], the “LD50 Value, Intracisternal (Rats)” value was below 20 mg. I/kg. body wt. The Pyelographic visualization entry is on record as “a better shadow of the kidneys was seen together with partial visualization of the ureters” in data set [2] (155 mg. I/kg., five minutes after injection) and “visualization of the kidneys” in data set [2] (155 mg. I/kg., one minute after injection). For the same molecule, in data set [3], the “LD50 Value, I.V. (Mice)” value was 2,300 mg. I/kg. body wt. Moreover, the solubility in “Water solubility” (read-out: Water solubility) was at least 1000 mg/mL. The “LD50 Value, Intracerebral (Mice)” value in data set [4] is recorded as 222 mg. I/kg. body wt.
